For one test, the system named is THP1 reporter cells. Nature of the test: THP1 IRF luciferase reporter assay. Type of test: cell-based. Particulars: Homo sapiens, THP-1; IRF Lucia luciferase reporter, 24 h; read-out: THP1 reporter cell EC50. From the text:
We sought to develop small molecule compounds with increased STING agonist activity against human STING. GSK reported a series of non-CDN small molecules, represented by compound 1[13], with good human STING agonistic activity. Based on our molecular modeling analysis, along with the reported CDN-STING crystal structures, we designed a novel series of fused tricyclic heterocycle compounds and analyzed their binding to human STING with thermal shift assays and the potency in activation of STING signaling with a reporter cellular assay (Supplementary Table S1). Thermal shift assays measure the difference between apo STING and ligand bound STING in the inflection point at which 50% of protein is thermally unfolded (ΔTm). […] The ability of compounds to activate the IRF reporter gene in the THP1 cells was also evaluated.
(§1) THP1 reporter cells were treated for 24 h with a total of 100 k cells and 150 ul media in each well a 96-well plate. […] Luminescence signal was measured using Tecan infinite M1000. EC50 values were calculated using non-linear regression analysis of GraphPad Prism. Cell growth was monitored by CellTiter-Glo Luminescent Cell Viability Assay (Promega) per manufacture’s protocol. GI50 values were calculated using non-linear regression analysis of GraphPad Prism. […]
(A reporter such as luciferase makes a cellular process visible.)

Test [1] deals with THP1 reporter cells carrying human STING R232, H232 and HAQ variants. Nature of the test: IRF luciferase reporter assay in THP1 cells with STING variants. Type of test: cell-based. Conditions: compared to cGAMP and ADU-S100; 24 h. From the text: Five haplotypes of human STING have been identified (R232, H232, HAQ, AQ, and Q alleles), which vary at amino acid positions 71, 230, 232, and 293[16]. R232, HAQ and H232 were reported to be the three major alleles. We tested the responsiveness of the human STING alleles to STING agonists in THP1 reporter cells carrying human STING R232, H232 and HAQ variants. […] To examine whether the activities of STING agonists are on-target, we treated THP1-STING-KO reporter cells with the agonists and no luciferase reporter activity was detected, confirming the cellular activity of STING agonists we observed are specific from STING.
Figure 2 SHR1032 specifically and potently activates STING signaling pathway. […] Cells were stimulated for 24 h with the indicated STING compounds and assessed for luciferase activity. […] IFNβ in media was quantified by human or mouse ELISA kits respectively. […] The amount of pTBK1, total TBK1, STING and α-tubulin was measured by western blotting.
THP1 reporter cells were treated for 24 h with a total of 100 k cells and 150 ul media in each well a 96-well plate. […] Luminescence signal was measured using Tecan infinite M1000. EC50 values were calculated using non-linear regression analysis of GraphPad Prism. Cell growth was monitored by CellTiter-Glo Luminescent Cell Viability Assay (Promega) per manufacture’s protocol. […]

In the next test the test system is MOLM-16 cells. Nature of the test: CellTiter-Glo cell growth. Particulars: Homo sapiens, MOLM16; MOLM-16, CellTiter Glo. It counts as cell-based. The procedure:
(§2) (a–d) AML cells were treated with STING agonists and standard of care cytarabine, and cell viability was measured by CellTiter Glo in (a) THP1-STING-R232, (b) THP1-STING-KO, (c) MV-4-11 and (d) MOLM-16. (e) MV-4-11, MOLM-16 and THP1-STING-KO cells were stimulated with 1 µM of SHR1032 for the indicated time points. The amount of pTBK1, total TBK1, pSTING, total STING and α-tubulin was measured by Western blot. pSTING phosphorylated STING. THP1 reporter cells were treated for 24 h with a total of 100 k cells and 150 ul media in each well a 96-well plate. Following the incubation, 20 µl of supernatant was transferred to an opaque 96 well ½ area plate and incubated for 30 s with 50 µl of QUANTI-Luc substrate (InvivoGen) per manufacturer’s instructions. Luminescence signal was measured using Tecan infinite M1000. EC50 values were calculated using non-linear regression analysis of GraphPad Prism. Cell growth was monitored by CellTiter-Glo Luminescent Cell Viability Assay (Promega) per manufacture’s protocol. GI50 values were calculated using non-linear regression analysis of GraphPad Prism. Cell lysates for western blotting were made in RIPA buffer (Sigma) with Halt Protease and Phosphatase Inhibitors (Thermo Scientific). Antibodies against pSTING, TBK1, pTBK1 and tubulin were purchased from Cell Signaling Technologies, and anti-STING was purchased from Protein Tech.
(In general: ATP-based viability assays read luminescence as a measure of living cells.)

For a further test, the system named is MV4-11 cells. Nature of the test: CellTiter-Glo cell growth. Type of test: cell-based. Particulars: Homo sapiens; MV4-11, CellTiter Glo. On the procedure:
as §2

Test [2] relates to THP1-IFNAR2-WT and THP1-IFNAR2-KO cells. Nature of the test: Cell TiterGlo cell viability, IFNAR2 WT versus KO. Type of test: cell-based, human. Conditions: THP1-IFNAR2-WT vs -KO. On the procedure: Figure 5 Cell apoptosis induced by SHR1032 in AML cell lines is independent of type I interferon. (a–d) RNA-Seq analysis of THP1-STING-R232, THP1-STING-KO and MV4-11 AML cells treated with 1 µM of SHR1032 for 4 h. […] (d) ANNEXIN V staining analysis with flow cytometry in MV4-11, MOLM-16, THP1-STING-WT and THP1-STING-KO cells. (e) Cell viability analysis by CellTiter Glo in THP1-IRFAR2-WT or -KO cells.
Type I interferons have been known to drive apoptosis in AML cells. Therefore, the apoptotic effects might be caused by type I interferons generated by STING activation. To address this question, we examined the IFNβ production with ELISA in MV4-11 and MOLM-16 cells stimulated with SHR1032. […] The activity of type I IFNs is mediated by the IFN-α receptor (IFNAR), which consists of two chains: IFNAR1 and IFNAR2. Knockout of the IFNAR2 gene abolishes the cellular response to type I IFNs.
as §1

The structures appear in SMILES notation.

Usually EC50 stands for the concentration giving half of the maximal effect. In general, GI50 refers to the concentration at which growth is held to half of that of the control. Lower therefore signals greater sensitivity of the cells. On to `CCn1nc(C)cc1C(=O)Nc1nc2cc(C(N)=O)cc(OC)c2n1CCC[C@H]1COc2cc(C(N)=O)cc3nc(NC(=O)c4cc(C)nn4CC)n1c23` [SHR1032], for which the EC50 with THP1 reporter cells was 30 nM. The “potency in IRF luciferase reporter” value in test [1] is on record as “much better potency”. In addition, the figures for the GI50 in the test with MOLM-16 cells and in the test on MV4-11 cells were 2.6 nM and 1 nM, respectively. Moreover, the “effect of IFNA receptor deletion on induced cell death” value in test [2] was “no effect on cell death induced by SHR1032”.

For the origin of these results see PMC9122897, “SHR1032, a novel STING agonist, stimulates anti-tumor immunity and directly induces AML apoptosis” (Scientific Reports, 2022).
